# Experimental data as given in ChEMBL document CHEMBL3044631, “Synthesis of 2-[4,5-dimethyl-1-(phenylamino)-1H-imidazol-2-ylthio]-N-(thiazole-2-yl)acetamide derivatives and their anticancer activities” (2013).
# Assays:
# Type in all cases: functional
# M14 = experiment: Anticancer activity against Homo sapiens (human) M14 cells after 48 hr by SRB assay; conditions: M14, 48 h
# CAKI-1 = experiment: Anticancer activity against Homo sapiens (human) CAKI-1 cells after 48 hr by SRB assay; conditions: CAKI-1, 48 h
# HCT-116 = experiment: Anticancer activity against Homo sapiens (human) HCT116 cells after 48 hr by SRB assay; conditions: HCT-116, 48 h
# 786-0 = experiment: Anticancer activity against Homo sapiens (human) 786-0 cells after 48 hr by SRB assay; conditions: 786-0, 48 h
# ACHN = experiment: Anticancer activity against Homo sapiens (human) ACHN cells after 48 hr by SRB assay
# SF-268 = experiment: Anticancer activity against Homo sapiens (human) SF268 cells after 48 hr by SRB assay; conditions: SF-268, 48 h
# MDA-MB-231 = experiment: Anticancer activity against Homo sapiens (human) MDA-MB-231/ATCC cells after 48 hr by SRB assay; conditions: MDA-MB-231, 48 h
# Malme-3M = experiment: Anticancer activity against Homo sapiens (human) MALME-3M cells after 48 hr by SRB assay
# EKVX = experiment: Anticancer activity against Homo sapiens (human) EKVX cells after 48 hr by SRB assay
# NCI-H522 = experiment: Anticancer activity against Homo sapiens (human) NCI-H522 cells after 48 hr by SRB assay; conditions: NCI-H522, 48 h
# SNB-75 = experiment: Anticancer activity against Homo sapiens (human) SNB75 cells after 48 hr by SRB assay; conditions: SNB-75, 48 h
# HOP-62 = experiment: Anticancer activity against Homo sapiens (human) HOP62 cells after 48 hr by SRB assay; conditions: HOP-62, 48 h
# K562 = experiment: Anticancer activity against Homo sapiens (human) K562 cells after 48 hr by SRB assay; conditions: K562, 48 h
# BT-549 = experiment: Anticancer activity against Homo sapiens (human) BT549 cells after 48 hr by SRB assay; conditions: BT-549, 48 h
# OVCAR-3 = experiment: Anticancer activity against Homo sapiens (human) OVCAR3 cells after 48 hr by SRB assay; conditions: OVCAR-3, 48 h
# DU-145 = experiment: Anticancer activity against Homo sapiens (human) DU145 cells after 48 hr by SRB assay; conditions: DU-145, 48 h
# T47D = experiment: Anticancer activity against Homo sapiens (human) T47D cells after 48 hr by SRB assay
# SF-539 = experiment: Anticancer activity against Homo sapiens (human) SF539 cells after 48 hr by SRB assay; conditions: SF-539, 48 h
# NCI/ADR-RES = experiment: Anticancer activity against Homo sapiens (human) NCI/ADR-RES cells after 48 hr by SRB assay
# MOLT-4 = experiment: Anticancer activity against Homo sapiens (human) MOLT4 cells after 48 hr by SRB assay; conditions: MOLT-4, 48 h
# COLO 205 = experiment: Anticancer activity against Homo sapiens (human) COLO205 cells after 48 hr by SRB assay; conditions: COLO 205, 48 h
# HCT-15 = experiment: Anticancer activity against Homo sapiens (human) HCT15 cells after 48 hr by SRB assay; conditions: HCT-15, 48 h
# UO-31 = experiment: Anticancer activity against Homo sapiens (human) UO31 cells after 48 hr by SRB assay; conditions: UO-31, 48 h
# A498 = experiment: Anticancer activity against Homo sapiens (human) A498 cells after 48 hr by SRB assay; conditions: A498, 48 h
# OVCAR-4 = experiment: Anticancer activity against Homo sapiens (human) OVCAR4 cells after 48 hr by SRB assay; conditions: OVCAR-4, 48 h
# TK-10 = experiment: Anticancer activity against Homo sapiens (human) TK10 cells after 48 hr by SRB assay; conditions: TK-10, 48 h
# UACC-257 = experiment: Anticancer activity against Homo sapiens (human) UACC257 cells after 48 hr by SRB assay; conditions: UACC-257, 48 h
# MDA-MB-468 = experiment: Anticancer activity against Homo sapiens (human) MDA-MB-468 cells after 48 hr by SRB assay; conditions: MDA-MB-468, 48 h
# A549 = experiment: Anticancer activity against Homo sapiens (human) A549/ATCC cells after 48 hr by SRB assay; conditions: A549, 48 h
# SK-MEL-5 = experiment: Anticancer activity against Homo sapiens (human) SK-MEL-5 cells after 48 hr by SRB assay; conditions: SK-MEL-5, 48 h
# MDA-MB-435 = experiment: Anticancer activity against Homo sapiens (human) MDA-MB-435 cells after 48 hr by SRB assay; conditions: MDA-MB-435, 48 h
# [1] = read-out: LC50 (the source's name)
smiles,measurement,setting,value
Cc1ccc(Nn2c(SCC(=O)Nc3nc(-c4ccccc4)cs3)nc(C)c2C)cc1,GI50,M14,3.7 µM
same,LC50,M14,> 100 µM
same,TGI,M14,48.6 µM
same,GI50,CAKI-1,1.86 µM
same,LC50 (concentration killing 50% of cells),CAKI-1,99.3 µM
same,TGI,CAKI-1,6.1 µM
same,GI50,HCT-116,2.82 µM
same,LC50,HCT-116,> 100 µM
same,TGI,HCT-116,26.5 µM
same,GI50,786-0,4.41 µM
same,LC50 (lethal concentration 50),786-0,> 100 µM
same,TGI,786-0,> 100 µM
same,GI50,ACHN,4.06 µM
same,LC50 (concentration killing 50% of cells),ACHN,> 100 µM
same,TGI,ACHN,62.9 µM
same,GI50,SF-268,9.1 µM
same,LC50,SF-268,> 100 µM
same,TGI,SF-268,> 100 µM
same,GI50,MDA-MB-231,3.34 µM
same,TGI,MDA-MB-231,> 100 µM
same,CC50,MDA-MB-231; [1],> 100 µM
same,GI50,Malme-3M,2.48 µM
same,TGI,Malme-3M,13.6 µM
same,CC50,Malme-3M; [1],> 100 µM
same,GI50,EKVX,1.39 µM
same,TGI,EKVX,5.61 µM
same,CC50,EKVX; [1],> 100 µM
same,GI50,NCI-H522,2.97 µM
same,LC50 (50% lethal concentration),NCI-H522,> 100 µM
same,TGI,NCI-H522,86.8 µM
same,GI50,SNB-75,2.81 µM
same,LC50,SNB-75,> 100 µM
same,TGI,SNB-75,> 100 µM
same,GI50,HOP-62,18.4 µM
same,LC50,HOP-62,> 100 µM
same,GI50,K562,3.62 µM
same,TGI,K562,> 100 µM
same,CC50,K562; [1],> 100 µM
same,GI50,BT-549,3.18 µM
same,LC50,BT-549,94.7 µM
same,TGI,BT-549,14.1 µM
same,GI50,OVCAR-3,8.24 µM
same,LC50 (50% lethal concentration),OVCAR-3,> 100 µM
same,TGI,OVCAR-3,> 100 µM
same,GI50,DU-145,9.75 µM
same,LC50 (concentration killing 50% of cells),DU-145,> 100 µM
same,TGI,DU-145,64.6 µM
same,GI50,T47D,1.85 µM
same,TGI,T47D,10.4 µM
same,CC50,T47D; [1],> 100 µM
same,GI50,SF-539,4.68 µM
same,LC50 (concentration killing 50% of cells),SF-539,> 100 µM
same,TGI,SF-539,35.2 µM
same,GI50,NCI/ADR-RES,3.04 µM
same,LC50,NCI/ADR-RES,> 100 µM
same,TGI,NCI/ADR-RES,22.2 µM
same,GI50,MOLT-4,3.46 µM
same,LC50 (50% lethal concentration),MOLT-4,> 100 µM
same,TGI,MOLT-4,> 100 µM
same,GI50,COLO 205,3.98 µM
same,TGI,COLO 205,34.4 µM
same,CC50,COLO 205; [1],> 100 µM
same,GI50,HCT-15,5.17 µM
same,TGI,HCT-15,> 100 µM
same,CC50,HCT-15; [1],> 100 µM
same,GI50,UO-31,2.89 µM
same,TGI,UO-31,> 100 µM
same,CC50,UO-31; [1],> 100 µM
same,GI50,A498,17.4 µM
same,LC50,A498,> 100 µM
same,TGI,A498,> 100 µM
same,GI50,OVCAR-4,2.13 µM
same,LC50 (concentration killing 50% of starting cells),OVCAR-4,> 100 µM
same,TGI,OVCAR-4,> 100 µM
same,GI50,TK-10,18.9 µM
same,LC50 (50% lethal concentration),TK-10,> 100 µM
same,TGI,TK-10,> 100 µM
same,GI50,UACC-257,2.12 µM
same,LC50,UACC-257,> 100 µM
same,TGI,UACC-257,9.29 µM
same,GI50,MDA-MB-468,1.7 µM
same,LC50,MDA-MB-468,> 100 µM
same,TGI,MDA-MB-468,6.67 µM
same,GI50,A549,3.03 µM
same,LC50,A549,> 100 µM
same,TGI,A549,> 100 µM
same,GI50,SK-MEL-5,2 µM
same,LC50 (concentration killing 50% of cells),SK-MEL-5,23.8 µM
same,TGI,SK-MEL-5,5.72 µM
same,GI50,MDA-MB-435,2.66 µM
same,LC50 (concentration killing 50% of cells),MDA-MB-435,> 100 µM
same,TGI,MDA-MB-435,9.54 µM
